In article PMC9739882, “Main Determinants Affecting the Antiproliferative Activity of Stilbenes and Their Gut Microbiota Metabolites in Colon Cancer Cells: A Structure–Activity Relationship Study” (International Journal of Molecular Sciences, 2022):
Like-named read-outs stand apart in the source and are kept apart here.

Experiments:
Caco-2 cells [1] = assay: MTT antiproliferative assay in Caco-2 cells; type: cell-based, human; settings: for IC50: Homo sapiens, Caco-2, antiproliferative, MTT, mean ± SD (n = 3)
Method: (§1) The cell lines were obtained from the American Type Culture Collection (ATCC, Rockville, MD, USA) and cultured according to the ATCC. The human colon cancer cell lines Caco-2 (p53-null) and HT-29 (mutant p53), and non-tumorigenic colon cells CCD18-Co (wild-type p53) were grown as reported elsewhere. All tested compounds were solubilized in DMSO (<0.5% in the culture medium) and filter-sterilized (0.2 μm) before addition to the culture media. […] The effects of the compounds on Caco-2, HT-29, and CCD18-Co cell viability and proliferation were measured using the MTT reduction assay according to Giménez-Bastida et al.. Data are presented as the mean ± standard deviation (SD) of at least three independent experiments (n = 2 wells for each compound (dose and time point) per experiment). Then, IC50 antiproliferative values were determined using a four-parameter logistic regression fit. The calculations were performed using the online tool Quest Graph^TM IC50 Calculator (AAT Bioquest, Inc., Sunnyvale, CA, USA (https://www.aatbio.com/tools/ic50-calculator, accessed on 26 April 2022).

HT-29 cells [2] = assay: MTT antiproliferative assay in HT-29 cells; type: cell-based, human; settings: for IC50: Homo sapiens, HT-29, antiproliferative, MTT, mean ± SD (n = 3); for IC50 decrease from 48 to 72 h in HT-29: ratio of IC50 at 48 h vs 72 h (Figure S1)
Method: as §1

Caco-2 cells [3] = assay: Apoptosis induction in Caco-2 cells (Annexin V/PI, flow cytometry); type: cell-based, human; settings: Caco-2, 72 h, compound at its IC50 concentration
Method: (§2) The effects of all the compounds at their corresponding IC50 values for 3 days of treatment on cell cycle distribution in Caco-2 cells were measured as described previously. Data are shown as the mean ± SD of 3 independent experiments (2 wells per treatment) for each time point. In addition, the apoptosis induction exerted by all the compounds at their corresponding IC50 values for 3 days of treatment was examined using the Annexin V/PI detection kit (Molecular Probes, ThermoFisher Scientific, Madrid, Spain) as described previously. Briefly, 20,000 Caco-2 cells per sample were analyzed by flow cytometry (Coulter, EPICS XL-MCL, Miami, FL, USA), and staurosporine 5 μM was used as a standard inducer of apoptosis. Finally, the percentage of alive (negative in both annexin V-FITC and PI), early apoptotic (positive in annexin V-FITC and negative in PI), late apoptotic (positive in both annexin V-FITC and PI), and necrotic cells (only positive in PI) was calculated. Data are shown as the mean ± SD of 3 independent experiments (2 wells per treatment) for each time point.

HT-29 cells [4] = assay: Phase-II metabolism of compounds by HT-29 cells (UPLC-QTOF-MS of culture media); type: in vitro ADME, human; settings: 50 μM, 24 h incubation
Method: (§3) Briefly, cell culture supernatants were collected at the end of the experiment and analyzed to measure the presence and concentration of the tested compounds. First, ACN (200 μL) was added per 200 μL of culture media, vortexed, and centrifuged at 16,435× g for 10 min. The supernatant was then concentrated in a Speedvac® concentrator (Savant SPD 121P), and then the residue was redissolved in 100 μL of MeOH and filtered (0.45 μm) before analysis by UPLC-QTOF-MS.
(§4) Briefly, the analyses were performed on an Agilent 1290 Infinity UPLC system coupled to a 6550 Accurate-Mass quadrupole-time-of-flight (QTOF) mass spectrometer (Agilent Technologies, Waldbronn, Germany) using an electrospray interface (Jet Stream Technology). Chrysin was used as an internal control of the ionization signal. Spectra were acquired in the m/z range from 100 to 1100, in negative polarity mode (m/z^−) and an acquisition rate of 1.5 spectra/s. Data were processed using the Mass Hunter Qualitative Analysis software (version B.06.00, Agilent). […]
(§5) A direct comparison with the available standards was used to identify the different metabolites. […] In addition, using extracted ion chromatograms (EICs) for area calculation and quantification reduced the possibility of misinterpreting overlapping peaks.

Caco-2 cells [5] = assay: Phase-II metabolism of compounds by Caco-2 cells (UPLC-QTOF-MS of culture media); type: in vitro ADME, human; settings: 50 μM, 72 h incubation
Method: as §3, §4, §5

Caco-2 cells [6] = assay: Cell cycle distribution in Caco-2 cells (flow cytometry); type: cell-based, human; settings: Caco-2, 72 h, compound at its IC50 concentration, p < 0.05 vs control
Method: as §2

CCD18-Co cells = assay: MTT antiproliferative assay in non-tumorigenic CCD18-Co cells; type: cell-based; settings: Homo sapiens, CCD-18Co, 72 h, non-tumorigenic colon cells
Method: as §1

[7] = design: method as in PMID 35981285; settings: cited from earlier work
[8] = 48 h, read-out: IC50 Caco-2 (48 h)
[9] = 72 h, read-out: IC50 Caco-2 (72 h)
[10] = 48 h, read-out: IC50 HT-29 (48 h)
[11] = 72 h, read-out: IC50 HT-29 (72 h)

SMILES | IC50 (Caco-2 cells [1]; [8]) [µM] | IC50 (Caco-2 cells [1]; [9]) [µM] | IC50 (HT-29 cells [2]; [10]) [µM] | IC50 (HT-29 cells [2]; [11]) [µM] | early-phase apoptotic cells vs control cells (Caco-2 cells [3]) | IC50 decrease from 48 to 72 h in Caco-2 (Caco-2 cells [1]; ratio of IC50 at 48 h vs 72 h (Figure S1)) [fold] | IC50 decrease from 48 to 72 h in HT-29 (HT-29 cells [2]) | compound metabolized by HT-29 cells after 24 h (HT-29 cells [4]) | compound metabolized by Caco-2 cells after 72 h (Caco-2 cells [5]) | cell cycle phase increase vs control (Caco-2 cells [6]) | late-phase apoptotic cells vs control cells (Caco-2 cells [3]) | IC50 (CCD18-Co cells) [µM] | concentration reached in the human colon [7] [µM]
Oc1cccc(CCc2ccccc2)c1 [3HDB, 3-(2-phenylethyl)phenol] | > 100 | 42.9 ± 4.1 | > 100 | 81.7 ± 15.5 | statistically significant (p < 0.05) |  |  |  |  |  |  |  | 
Oc1ccc(CCc2ccccc2)cc1 [4HDB, 4-(2-phenylethyl)phenol] | > 100 | 56.9 ± 8 | > 100 | 96.7 ± 6.7 |  |  |  |  |  |  |  |  | 
Oc1ccc(/C=C/c2ccccc2)cc1 [4HST, 4-Hydroxy-trans-stilbene] | 26.9 ± 8 | 11.4 ± 10.1 | 34 ± 8.1 | 24.4 ± 11.3 |  | 5 | 1.4 fold | fully metabolized | hardly metabolized | significant increase (p < 0.05) was observed at both phases, S and G2/M | significant differences (p < 0.05) |  | 
OCc1ccc(/C=C/c2ccccc2)cc1 [4STMe, trans-4-stilbenemethanol] | 88.3 ± 14.6 | 59.9 ± 23.1 | 85.4 ± 16.5 | 57.1 ± 18.9 | statistically significant (p < 0.05) |  |  |  |  |  |  |  | 
Oc1cc(O)cc(CCc2ccccc2)c1 [DHP, 3-hydroxy-(5-phenethyl)phenol] | 54 ± 3.1 | 73.9 ± 13.8 | > 100 | 82.4 ± 12.1 | statistically significant (p < 0.05) |  |  |  |  |  |  |  | 
Oc1ccc(CCc2cc(O)cc(O)c2)cc1 [DHRSV, Dihydroresveratrol] | 55.4 ± 10.8 | 33.8 ± 17.8 | > 100 | 69 ± 9.3 | statistically significant (p < 0.05) |  |  |  |  |  |  | 53 | > 100
Oc1ccc(C=Cc2cccc(O)c2)cc1 [DHST, 3-(4-hydroxystyryl)phenol] | 57.1 ± 10.2 | 22.7 ± 6.4 | 64.8 ± 15.6 | 48.3 ± 17.8 | statistically significant (p < 0.05) |  |  |  |  | significant increase (p < 0.05) was observed at both phases, S and G2/M | significant differences (p < 0.05) |  | 
Oc1ccc(CCc2cccc(O)c2)cc1 [LUNU, 3-(4-hydroxyphenethyl)phenol] | 84.5 ± 11.7 | 50.5 ± 23.1 | > 100 | 53.2 ± 6.8 |  |  |  |  |  |  |  | 67 | > 100
Oc1cc(O)cc(/C=C/c2ccc(O)cc2O)c1 [Oxy-RSV, 3,5,2′,4′-tetrahydroxy-trans-stilbene] | 74.7 ± 11.5 | 55.4 ± 2.5 | 96.7 ± 2.4 | 83.4 ± 5.8 | statistically significant (p < 0.05) |  |  |  |  |  | significant differences (p < 0.05) |  | 
Oc1cc(O)cc(/C=C/c2ccc(O)c(O)c2)c1 [PICE, 3,5,3′,4′-tetrahydroxy-trans-stilbene] | 55.4 ± 10.8 | 42 ± 9.8 | 78.5 ± 5.7 | 69.5 ± 4.6 | statistically significant (p < 0.05) |  |  |  |  |  | significant differences (p < 0.05) |  | 
Oc1cc(O)cc(/C=C/c2ccccc2)c1 [PINO, 3,5-dihydroxy-trans-stilbene] | 55.3 ± 12.7 | 26.4 ± 7.1 | 37.5 ± 14.3 | 38.1 ± 8 | statistically significant (p < 0.05) |  | no change |  |  |  |  |  | 
COc1cc(/C=C/c2ccc(O)cc2)cc(OC)c1 [PTERO, 3,5-dimethoxy, 4′-hydroxy-trans-stilbene] | 67.6 ± 12.3 | 43 ± 11.6 | 45.1 ± 13.7 | 37.9 ± 5.4 | statistically significant (p < 0.05) |  |  |  |  | significant increase (p < 0.05) was observed only at the G2/M phase | significant differences (p < 0.05) |  | 
Oc1ccc(/C=C/c2cc(O)cc(O)c2)cc1 [RSV, 3,5,4′-trihydroxy-trans-stilbene] | 50.4 ± 3.4 | 18.8 ± 1.6 | 68.9 ± 22.6 | 59.1 ± 9.9 |  |  |  | 100% | 14% |  | significant differences (p < 0.05) |  | 
